Columns and labels:
human GHS receptor [1] = target: T1, human GHS receptor (Homo sapiens, UniProt Q92847); test: h bind IC50 (binding assay, hBindingIC50)
T1 construct: expressed in transfected cells

human GHS receptor [2] = target: T1, human GHS receptor; test: Ghrelin IP1 agonist assay (IP1 HTRF) in HEK293s cells expressing human GHS receptor; type: cell-based
Experimental: In HEK293s cells stably expressing human GHS receptor (In-house), agonist activity was assessed by measuring intracellular myo-Inositol 1 phosphate (IP1) using the IP1 HTRF assay kit (Cisbio International).
Cells were harvested using accutase (Sigma), spun down at 1000 rpm for 5 minutes and resuspended in stimulation buffer (as above) containing 0.02% fatty acid free BSA at a density of 1.43E6 cells/ml.

T1 sequence (Q92847 whole entry): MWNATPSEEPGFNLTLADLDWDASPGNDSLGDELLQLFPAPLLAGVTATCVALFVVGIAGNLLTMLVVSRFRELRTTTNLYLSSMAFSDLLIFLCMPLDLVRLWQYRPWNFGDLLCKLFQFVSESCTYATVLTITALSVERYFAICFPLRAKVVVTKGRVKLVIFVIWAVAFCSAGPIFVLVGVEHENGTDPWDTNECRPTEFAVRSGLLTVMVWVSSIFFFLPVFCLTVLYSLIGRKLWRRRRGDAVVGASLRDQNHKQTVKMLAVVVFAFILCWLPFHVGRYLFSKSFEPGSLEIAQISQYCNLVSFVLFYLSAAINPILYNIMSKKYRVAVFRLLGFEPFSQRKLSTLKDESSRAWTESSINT

IC50 (human GHS receptor [1]): 2220 nM | Emax (human GHS receptor [2]; HEK293S, 2 h, agonist effect as % maximal effect of GHRP-6 (5 μM), read-out: h IP1 ag %): 18.2% | EC50 (human GHS receptor [2]; HEK293s cells stably expressing human GHS receptor, read-out: h IP1 ag EC50): 3680 nM
SMILES: CCS(=O)(=O)c1ccccc1C(=O)NC(=O)Nc1nc2ccc(S(C)(=O)=O)cc2s1 [Example 135, 2-Ethylsulfonyl-N-[(6-methylsulfonylbenzothiazol-2-yl)carbamoyl]benzamide]

Reference: patent US20130203730A1, “BENZOTHIAZOLES AS GHRELIN RECEPTOR MODULATORS” (AstraZeneca AB, priority 2007, published 2013)
